The target in data set [1] is EGFR. Briefly: HEK293-TLR8, 100 nM ASO, then resiquimod.
The target of data set [2] is EGFR. Briefly: HEK293-TLR7, 100 nM ASO, then resiquimod.
Data set [3] deals with CDKN2B-AS1. In words: HEK293-TLR8, 100 nM ASO, then resiquimod.
Data set [4] has as its target CDKN2B-AS1. In words: HEK293-TLR7, 100 nM ASO, then resiquimod.

Strand notation (5' to 3'): a small letter for the sugar, then the base; units joined by * are phosphorothioate-linked, units joined directly phosphodiester-linked; [ ] holds rarer units or linkages, { } end groups; capitals alone tell only the bases. HELM strings list units from the 5' end as sugar, base in round brackets, then linkage (d deoxyribose, r ribose, m 2'-O-methyl, p phosphodiester). [sp] = phosphorothioate linkage; d = 2'-deoxy (DNA); m = 2'-O-methyl

Regarding “mA*mU*mG*mU*mC*dC*dC*dG*dC*dC*dA*dC*dT*dG*dG*mA*mU*mG*mC*mU”, the TLR8 potentiation (NF-kB luciferase) (fold of resiquimod alone) in data set [1] amounted to 0.84. For the same substance, in data set [2], the TLR7 signal (NF-kB luciferase) (% of resiquimod alone) turned out to be 71.7.
With “mG*mG*mC*mA*mU*dC*dC*dA*dC*dC*dA*dC*dG*dT*dC*mG*mU*mC*mC*mA”, the TLR8 potentiation (NF-kB luciferase) (fold of resiquimod alone) in data set [1] is 0.85. This substance also showed a TLR7 signal (NF-kB luciferase) (% of resiquimod alone) in data set [2] of 34.9.
Take “mG*mU*mC*mC*mU*dT*dG*dC*dA*dC*dG*dT*dG*dG*dC*mU*mU*mC*mG*mU”: the TLR8 potentiation (NF-kB luciferase) (fold of resiquimod alone) in data set [1] came to 0.8. Moreover, the TLR7 signal (NF-kB luciferase) (% of resiquimod alone) in data set [2] is 31.5.
Regarding “mG*mG*mG*mA*mC*dA*dC*dT*dT*dC*dT*dT*dC*dA*dC*mG*mC*mA*mG*mG”, the TLR8 potentiation (NF-kB luciferase) (fold of resiquimod alone) in data set [1] is 1.24. In data set [2], this substance came in with a TLR7 signal (NF-kB luciferase) (% of resiquimod alone) of 52.1.
As to “RNA1{m(A)[sp].m(G)[sp].m(A)[sp].m(A)[sp].m(A)[sp].d(G)[sp].d(A)[sp].d(A)[sp].d(G)[sp].d(C)[sp].d(A)[sp].d(A)[sp].d(A)[sp].d(G)[sp].d(A)[sp].m(U)[sp].m(U)[sp].m(C)[sp].m(A)[sp].m(A)}$$$$”, in data set [3], the TLR8 potentiation (NF-kB luciferase) (fold of resiquimod alone) turned out to be 1.96. Further, the TLR7 signal (NF-kB luciferase) (% of resiquimod alone) in data set [4] amounted to 43.
As to “RNA1{m(A)[sp].m(U)[sp].m(U)[sp].m(U)[sp].m(C)[sp].d(C)[sp].d(A)[sp].d(C)[sp].d(A)[sp].d(T)[sp].d(G)[sp].d(C)[sp].d(C)[sp].d(C)[sp].d(A)[sp].m(G)[sp].m(U)[sp].m(G)[sp].m(U)[sp].m(U)}$$$$”, in data set [3], the TLR8 potentiation (NF-kB luciferase) (fold of resiquimod alone) is 2.06. The TLR7 signal (NF-kB luciferase) (% of resiquimod alone) in data set [4] amounted to 32.
The corresponding values for “RNA1{m(G)[sp].m(U)[sp].m(C)[sp].m(U)[sp].m(C)[sp].d(C)[sp].d(A)[sp].d(T)[sp].d(G)[sp].d(T)[sp].d(C)[sp].d(C)[sp].d(C)[sp].d(A)[sp].d(G)[sp].m(G)[sp].m(C)[sp].m(C)[sp].m(U)[sp].m(C)}$$$$” are 1.01 and 23.8.
As for “RNA1{m(C)[sp].m(U)[sp].m(U)[sp].m(G)[sp].m(U)[sp].d(G)[sp].d(A)[sp].d(A)[sp].d(A)[sp].d(A)[sp].d(G)[sp].d(A)[sp].d(T)[sp].d(T)[sp].d(A)[sp].m(U)[sp].m(C)[sp].m(U)[sp].m(U)[sp].m(C)}$$$$”, the TLR8 potentiation (NF-kB luciferase) (fold of resiquimod alone) in data set [3] is 3.89. Also, in data set [4], the TLR7 signal (NF-kB luciferase) (% of resiquimod alone) worked out at 85.3.
As to “RNA1{m(U)[sp].m(A)[sp].m(U)[sp].m(U)[sp].m(U)[sp].d(C)[sp].d(C)[sp].d(A)[sp].d(C)[sp].d(A)[sp].d(T)[sp].d(G)[sp].d(C)[sp].d(C)[sp].d(C)[sp].m(A)[sp].m(G)[sp].m(U)[sp].m(G)[sp].m(U)}$$$$”, in data set [3], the TLR8 potentiation (NF-kB luciferase) (fold of resiquimod alone) is 2.77. This substance also gave a TLR7 signal (NF-kB luciferase) (% of resiquimod alone) in data set [4] of 30.5.
For “RNA1{m(A)[sp].m(A)[sp].m(A)[sp].m(G)[sp].m(A)[sp].d(T)[sp].d(T)[sp].d(A)[sp].d(T)[sp].d(C)[sp].d(T)[sp].d(T)[sp].d(C)[sp].d(T)[sp].d(T)[sp].m(U)[sp].m(U)[sp].m(A)[sp].m(A)[sp].m(U)}$$$$”, the TLR8 potentiation (NF-kB luciferase) (fold of resiquimod alone) in data set [3] turned out to be 2.96. The TLR7 signal (NF-kB luciferase) (% of resiquimod alone) in data set [4] worked out at 49.3.
For “RNA1{m(G)[sp].m(U)[sp].m(G)[sp].m(U)[sp].m(U)[sp].d(T)[sp].d(T)[sp].d(T)[sp].d(A)[sp].d(A)[sp].d(T)[sp].d(T)[sp].d(T)[sp].d(T)[sp].d(G)[sp].m(U)[sp].m(A)[sp].m(G)[sp].m(A)[sp].m(G)}$$$$”, the TLR8 potentiation (NF-kB luciferase) (fold of resiquimod alone) in data set [3] was 1.31. Besides, the TLR7 signal (NF-kB luciferase) (% of resiquimod alone) in data set [4] is 23.6.
On to “RNA1{m(C)[sp].m(U)[sp].m(C)[sp].m(U)[sp].m(C)[sp].d(T)[sp].d(T)[sp].d(T)[sp].d(C)[sp].d(T)[sp].d(G)[sp].d(T)[sp].d(G)[sp].d(G)[sp].d(T)[sp].m(U)[sp].m(U)[sp].m(C)[sp].m(U)[sp].m(C)}$$$$”, for which the TLR8 potentiation (NF-kB luciferase) (fold of resiquimod alone) in data set [3] turned out to be 3.82. Moreover, the TLR7 signal (NF-kB luciferase) (% of resiquimod alone) in data set [4] was 92.3.
On to “RNA1{m(G)[sp].m(U)[sp].m(C)[sp].m(C)[sp].m(C)[sp].d(A)[sp].d(G)[sp].d(G)[sp].d(C)[sp].d(C)[sp].d(T)[sp].d(C)[sp].d(C)[sp].d(A)[sp].d(G)[sp].m(U)[sp].m(G)[sp].m(U)[sp].m(C)[sp].m(U)}$$$$”, for which the TLR8 potentiation (NF-kB luciferase) (fold of resiquimod alone) in data set [3] worked out at 1.05. Besides, the TLR7 signal (NF-kB luciferase) (% of resiquimod alone) in data set [4] amounted to 19.

The values are drawn from the OligoGym collection.
